One compound from ChEMBL document CHEMBL5030560, “Berberine Molecular Recognition of the Parallel MYC G-Quadruplex in Solution” (J Med Chem, 2021) can be followed below.

Molecules are shown by their SMILES. Activity calls are given as the source filed them. The calls are words filed in the database; no cut-off is given here.

Common to all, as to type: nucleic-acid assay
The test system of experiment [1] is Quadruplex DNA. As to the kind of experiment: Binding affinity to human MycG4 DNA (unknown origin) assessed as compound-DNA complex at 2:1 ratio by mass spectroscopy.
The target of experiment [2] is Quadruplex DNA. Nature of the experiment: Binding affinity to human MycG4 DNA (unknown origin) assessed as apparent dissociation constant by fluorescence based binding assay. The following applies: read-out: Kd(app).
Experiment [3] has as its system Quadruplex DNA. As to the kind of experiment: Binding affinity to human MycG4 DNA (unknown origin) assessed as compound-DNA complex at 3:1 ratio by 1D NMR analysis.

As to `COc1ccc2cc3[n+](cc2c1OC)CCc1cc2c(cc1-3)OCO2` [BERBERINE], the outcome in the experiment with Quadruplex DNA [1] and with Quadruplex DNA [3] was Active. In addition, on Quadruplex DNA [2], the Kd was determined as 9.9 µM.
